ChEMBL document CHEMBL1201862, “PubChem BioAssay data set” (2004)
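1) Cells in 96-well plates. 2) Compound, 48 h, 5 concentrations. 3) Linear interpolation between surrounding doses. 4) Unreached endpoint = highest concentration. GI50: concentration for 50% inhibition of growth.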 Calls of active or inactive are those of the source. Cut-off read from the data, not from the text of the source: active = GI50 up to about 1.1 µM and inactive = higher.

Key:
Experiment in all cases: growth of human tumour cells (NCI), 48 h
[1] = test system: SW-620
[2] = test system: A549
[3] = test system: OVCAR-8
[4] = test system: SF-539
[5] = test system: SK-OV-3
[6] = test system: U-251
[7] = test system: SK-MEL-5
[8] = test system: NCI-H522
[9] = test system: SK-MEL-28
[10] = test system: UACC-257
[11] = test system: HOP-62
[12] = test system: IGROV-1
[13] = test system: OVCAR-5
[14] = test system: SNB-19
[15] = test system: HT-29
[16] = test system: SR

Measured: GI50

COc1cc(/C=C/C(=O)c2sc(-n3nc(-c4ccccc4)cc3-c3ccccc3)nc2C)ccc1O
inactive: [1] > 100 µM | [2] > 100 µM | [3] > 100 µM | [4] > 100 µM | [5] > 100 µM | [6] > 100 µM | [7] 55.2 µM | [8] 14.5 µM | [9] > 100 µM | [10] > 100 µM | [11] > 100 µM | [12] 94.6 µM | [13] > 100 µM

O=C1OC(O)c2cc3c(cc21)OCO3 (centres undefined)
inactive: [1] > 100 µM | [2] > 100 µM | [14] > 100 µM | [3] > 100 µM | [4] > 100 µM | [5] > 100 µM | [6] > 100 µM | [7] > 100 µM | [8] > 100 µM | [9] > 100 µM | [10] > 100 µM | [11] > 100 µM | [12] > 100 µM | [15] > 100 µM

CCOC(=O)c1cc2c3c(c(O)c(OC)c2s1)N(C(=O)c1cc2c4c(c(O)c(OC)c2s1)N(C(C)=O)CC4)CC3
inactive: [1] > 100 µM | [2] > 100 µM | [14] > 100 µM | [3] 72.8 µM | [4] 38.5 µM | [5] 22 µM | [6] 63.8 µM | [7] 85.1 µM | [8] > 100 µM | [9] > 100 µM | [10] > 100 µM | [11] 35.6 µM | [12] > 100 µM | [15] > 100 µM | [13] > 100 µM

O=C1C2=C(c3ccccc31)C(c1ccccc1Cl)N1C(=O)CCSC1=N2 (centres undefined)
inactive: [1] > 100 µM | [2] > 100 µM | [14] > 100 µM | [3] > 100 µM | [4] > 100 µM | [5] > 100 µM | [6] > 100 µM | [7] > 100 µM | [8] 35.7 µM | [9] > 100 µM | [10] > 100 µM | [11] > 100 µM | [12] > 100 µM | [15] > 100 µM | [13] > 100 µM

COC1CCC(=C2C(=O)OC(C)(C)OC2=O)N1 (centres undefined)
inactive: [1] > 100 µM | [2] > 100 µM | [14] > 100 µM | [3] > 100 µM | [4] > 100 µM | [5] > 100 µM | [6] > 100 µM | [8] > 100 µM | [9] > 100 µM | [10] > 100 µM | [11] > 100 µM | [12] > 100 µM | [15] > 100 µM | [13] > 100 µM

CCN(CC)c1ccc(Cl)c2c1C(O)(C(C)C)C2(C)C (centres undefined)
inactive: [1] 18.1 µM | [2] 19.9 µM | [14] 15.2 µM | [3] 18.9 µM | [4] 19.8 µM | [5] 15.6 µM | [6] 16.8 µM | [7] 15.4 µM | [8] 14.5 µM | [9] 22.4 µM | [10] 14.5 µM | [11] 23.7 µM | [12] 14.7 µM | [15] 11.8 µM | [13] 16.6 µM

CCOC(=O)C/N=c1\nc(SC)sc2c(C(=O)OCC)nc(Sc3ccccc3)n12
inactive: [1] > 100 µM | [2] > 10 µM | [3] 39.3 µM | [5] > 100 µM | [7] > 100 µM | [16] 4.74 µM | [8] 7.18 µM | [10] 28.6 µM | [11] 52.1 µM | [12] 83.2 µM | [15] > 100 µM | [13] > 100 µM

Cc1c(C(=O)/C=C/C=C/c2ccccc2)[n+]([O-])c2ccccc2[n+]1[O-]
inactive: [1] 22.4 µM | [2] 22.9 µM | [14] 35.5 µM | [3] 42.8 µM | [4] 40 µM | [5] 40.5 µM | [6] 33.7 µM | [7] 19.9 µM | [8] 15 µM | [9] 18.9 µM | [10] 28.2 µM | [11] 25.3 µM | [12] 26.3 µM | [15] > 10 µM | [13] 66.1 µM

COc1cc(OC)c2c(=O)c3cccc([N+](=O)[O-])c3n(C)c2c1
inactive: [1] > 100 µM | [2] > 100 µM | [14] > 100 µM | [3] > 100 µM | [4] 74 µM | [5] > 100 µM | [6] > 100 µM | [7] > 100 µM | [8] 52.4 µM | [9] > 100 µM | [10] 87.9 µM | [12] 61.4 µM | [15] > 100 µM

[O-][S+](Cc1ccccc1)c1nc2ccccc2nc1-c1cccs1 (centres undefined)
inactive: [2] 15.2 µM | [14] 18.2 µM | [3] 13.7 µM | [4] 16.4 µM | [5] 29 µM | [6] 18.4 µM | [7] 11.4 µM | [8] 1.21 µM | [9] 11.3 µM | [10] 13.2 µM | [11] 19.2 µM | [12] 14.6 µM | [15] 11.7 µM | [13] 17.6 µM

CCCCC(C(=O)C(=O)Nc1ccccc1CC)C(=O)C(C)C (centres undefined)
inactive: [1] > 100 µM | [2] > 100 µM | [14] > 100 µM | [3] > 100 µM | [4] > 100 µM | [5] > 100 µM | [6] > 100 µM | [7] > 100 µM | [8] > 100 µM | [10] > 100 µM | [12] > 100 µM | [15] > 100 µM | [13] > 100 µM

Cc1ccc2c(c1)-c1c3c(nn1C)-c1ccccc1SC3O2 (centres undefined)
inactive: [1] > 100 µM | [2] 50 µM | [3] 39.6 µM | [4] > 100 µM | [5] > 100 µM | [6] > 100 µM | [8] 78.7 µM | [9] 78.9 µM | [10] 50.6 µM | [11] > 100 µM | [12] > 100 µM | [15] 41.6 µM | [13] > 100 µM

CC(C)(C)C1=CC(=C(P(=O)(O)O)P(=O)(O)O)C=C(C(C)(C)C)C1=O
inactive: [1] > 50 µM | [2] > 50 µM | [14] > 50 µM | [3] > 50 µM | [4] > 50 µM | [5] > 50 µM | [7] > 50 µM | [8] > 50 µM | [9] > 50 µM | [10] > 50 µM | [11] > 50 µM | [12] > 50 µM | [15] > 50 µM | [13] > 50 µM

CC/C(=C(\c1ccccc1)c1ccc(OCC[N+](C)(C)C)cc1)c1ccccc1 [TAMOXIFEN METHYL IODIDE]
inactive: [1] 16 µM | [2] 18.7 µM | [14] 17.4 µM | [3] 15.3 µM | [4] 21.6 µM | [5] 17.5 µM | [6] 13.4 µM | [7] 4.59 µM | [8] 4.99 µM | [9] 8.59 µM | [10] 6.75 µM | [11] 32.4 µM | [12] 8.81 µM | [15] 14.6 µM
